# US20210316013A1, “HAEMATOPOIETIC STEM CELL-GENE THERAPY FOR WISKOTT-ALDRICH SYNDROME” (priority 2018, published 2021)
# Tested on: Jurkat cells
# Test: Titration of 6TG dosing window, Jurkat cell viability
# Type: cell-based
# Conditions: 6TG 0.01-100 μM, viability after 2 days, cell counter TC20
# Protocol: Jurkat cells were incubated in a 96-well plate with different concentrations of 6TG (0.01-100 μM). After 2 days, viability of the cells was measured with cell counter TC20. Optimal 6TG dose for Jurkat cells was estimated to be approx. 504. A nominal concentration of 2.5 μM 6TG was elected for subsequent chemo-selection experiments. The results are illustrated in FIG. 20A.
smiles,measurement,value
"Nc1nc2nc[nH]c2c(=S)[nH]1 [Candidate 6TG, 6-thioguanine]",Optimal 6TG dose for Jurkat cells,approx. 504
